Test results from patent US11046745B2, “Peptide mimotopes of the CD3 T-cell co-receptor epsilon chain and uses thereof” (BioNTech SE, priority 2015, dated 2021).
pKd: −log10 of the molar value. Positions of bridges follow the written chain, without caps; N, C: chain ends. Residues, ends and D or L forms follow the SMILES beside them. No end group written: not given here. *: point of attachment. Biotin = O=C1N[C@H]2[C@H](CS[C@H]2CCCCC(=O)*)N1

Assays:
[1] = test system: TR66 antibody (CD3ε specific antibody, clone TR66); test: Binding analysis using biolayer interferometry (BLI), Octet Red, biotinylated peptides on streptavidin sensors; conditions: 500 nM TR66 antibody, one concentration
Experimental: FIG. 5. Comparative binding analysis of matured TR66 mimotopes aCD3-04-002 and aCD3-04-013 using biolayer interferometry (BLI) on an Octet Red system (fortéBIO). Biotinylated peptides were immobilized onto streptavidin (SA) sensors. After blocking with 1× blocking buffer and biocytin association and dissociaten rates of TR66 binding were recorded over a period of 2400 sec respectively. The antibody was used in a range of 1.5625 to 100 nM (1.5625, 3.125, 6.25, 12.5, 25, 50, 100 nM) for each analyzed peptide.
Binding analysis was performed using streptavidin (SA) sensors on an Octet Red system (fortéBIO). 5 μg/ml of biotinylated peptides were used for loading (200 μl per sensor). […] Remained biotin binding sites on coated streptavidin sensors were blocked using 100 μg/ml biocytin (Sigma-Aldrich) for 5 minutes. For binding mode analysis of different peptides 500 nM TR66 antibody was used in the association step. For detailed analysis the antibody was used in a range of 1.5625 to 100 nM (1.5625, 3.125, 6.25, 12.5, 25, 50, 100 nM) for each analyzed peptide. The following program was used: • Baseline: 1000 rpm for 180 sec. • Load: 1000 rpm for 900 sec. • Baseline: 1000 rpm for 180 sec. • Blocking: 1000 rpm for 300 sec. • Association: 1000 rpm for 1200-2400 sec. • Dissociation: 1000 rpm for 1200-2400 sec.
The peptides displaying the highest binding affinities from the peptide microarray experiments were synthesized by standard Fmoc-based solid-phase-synthesis protocols and purified (HPLC purity: >80%). The binding characteristics of each peptide were determined. In the first instance all peptides were analysed via biolayer interferometry (BLI) to get a first impression whether the respective variant has a significant binding property at all (yes/no binding, Table 2). At his point, only one TR66 concentration (500 nM) was tested. Except variants aCD3-04-010 and aCD3-04-012 all peptides show a measurable binding activity.

[2] = biological target: TR66 antibody (CD3ε specific antibody, clone TR66); test: Binding analysis using peptide ELISA, biotinylated peptides on streptavidin plates, TR66; conditions: TR66; mean of at least two individual measurements; two-site saturation binding model; read-out: Apparent KD, ELISA
Experimental: FIG. 3. Binding analysis of phage derived variants using a peptide based ELISA. Biotinylated peptides were immobilized on streptavidin plates (Nunc) in a concentration of 0.75 μg/ml. After blocking 30 μg/ml TR66 or an unrelated antibody (control ab) were added and incubated for 1 h at 37° C. Binding was detected with an alkaline phosphatase conjugated goat anti-human IgG antibody (Sigma) and the chromogenic substrate PNPP (para-nitrophenyl phosphate). All reactions were performed as duplicates. SD values are presented as error bars.
For the detection of TR66 or OKT3 (Bio-X-Cell), the CD3 mimicking peptides were immobilized on streptavidin plates (Nunc) in a concentration of 0.75 μg/ml in PBS buffer for 1 hour at 37° C. Subsequently, the plate was washed three times with washing buffer (0.01% Tween-20 in PBS buffer) before it was blocked with 3% BSA in PBS overnight at 4° C. To detect TR66 or OKT3, the blocked plate was washed again three times with washing buffer followed by the addition of TR66 or OKT3 and incubation for 30 min at 37° C. After another washing step, it was incubated with an alkaline phosphatase conjugated Goat anti-human or anti-mouse IgG, Fe antibody (Jackson Immuno Research) for additional 30 min at 37° C. Finally, the plate was washed again before being incubated with 1.5 mg/ml of the substrate PNPP (para-nitrophenyl phosphate) in appropriate substrate buffer (1 M Diethanolamine, 0.05 mM MgCl2, 0.01% sodium azide, pH 9.8) for 30 min at RT in the dark. 3 M KOH was used to stop the enzymatic reaction. Absorbance was measured with a microplate reader (Infinite M200, Tecan). For dual wavelength analysis, 405 nm was chosen as measurement wavelength and 492 nm as reference wavelength. Absorbance values were calculated by subtraction of the measured values for the reference wavelength and for the measurement wavelength. Calculation of apparent KD values was done by fitting the data with Sigma Plot 10 using a two-site saturation binding model.

With `C[C@H](N)C(=O)N[C@H]1CSSC[C@@H](C(=O)NCC(=O)NCC(=O)NCC(=O)N[C@@H](CO)C(=O)N[C@@H](CCCCNC(=O)CCCC[C@@H]2SC[C@@H]3NC(=O)N[C@@H]32)C(=O)O)NC(=O)[C@H](Cc2c[nH]c3ccccc23)NC(=O)[C@@H]2CCCN2C(=O)[C@H](CC(=O)O)NC(=O)[C@H](CC(=O)O)NC(=O)[C@@H]2CCCN2C(=O)[C@H](CCCNC(=N)N)NC(=O)[C@H]([C@@H](C)O)NC1=O` [aCD3-04-014, ACTRPDDPWC-GGGS-K(Bio)] (H-ACTRPDDPWCGGGSK(Biotin)-OH; disulfide 2-10) the “Yes/no binding, BLI” value [1] was “Yes” and the pKd [2] was 6.95.
For `C[C@H](N)C(=O)N[C@H]1CSSC[C@@H](C(=O)NCC(=O)NCC(=O)NCC(=O)N[C@@H](CO)C(=O)N[C@@H](CCCCNC(=O)CCCC[C@@H]2SC[C@@H]3NC(=O)N[C@@H]32)C(=O)O)NC(=O)[C@H](C)NC(=O)[C@@H]2CCCN2C(=O)[C@H](CC(=O)O)NC(=O)CNC(=O)[C@@H]2CCCN2C(=O)[C@H](CCCNC(=N)N)NC(=O)[C@H]([C@@H](C)O)NC1=O` [aCD3-04-008, ACTRPGDPAC-GGGS-K(Bio)] (H-ACTRPGDPACGGGSK(Biotin)-OH; disulfide 2-10), the “Yes/no binding, BLI” value [1] was “Yes” and the pKd [2] was 6.79.
`C[C@H](N)C(=O)N[C@H]1CSSC[C@@H](C(=O)NCC(=O)NCC(=O)NCC(=O)N[C@@H](CO)C(=O)N[C@@H](CCCCNC(=O)CCCC[C@@H]2SC[C@@H]3NC(=O)N[C@@H]32)C(=O)O)NC(=O)[C@H](CCC(N)=O)NC(=O)[C@@H]2CCCN2C(=O)[C@H](CC(=O)O)NC(=O)[C@H](CCC(=O)O)NC(=O)[C@@H]2CCCN2C(=O)[C@H](CCCNC(=N)N)NC(=O)[C@H]([C@@H](C)O)NC1=O` [aCD3-04-007, ACTRPEDPQC-GGGS-K(Bio)] (H-ACTRPEDPQCGGGSK(Biotin)-OH; disulfide 2-10) was tested, and the “Yes/no binding, BLI” value [1] was “Yes” and the pKd [2] was 6.52.
In the case of `C[C@H](N)C(=O)N[C@H]1CSSC[C@@H](C(=O)NCC(=O)NCC(=O)NCC(=O)N[C@@H](CO)C(=O)N[C@@H](CCCCNC(=O)CCCC[C@@H]2SC[C@@H]3NC(=O)N[C@@H]32)C(=O)O)NC(=O)[C@H](Cc2ccc(O)cc2)NC(=O)[C@@H]2CCCN2C(=O)[C@H](CC(=O)O)NC(=O)CNC(=O)[C@@H]2CCCN2C(=O)[C@H](CCCNC(=N)N)NC(=O)[C@H]([C@@H](C)O)NC1=O` [aCD3-04-009, ACTRPGDPYC-GGGS-K(Bio)] (H-ACTRPGDPYCGGGSK(Biotin)-OH; disulfide 2-10), the “Yes/no binding, BLI” value [1] was “Yes” and the pKd [2] was 6.78.
In the case of “ACTRPWDPQC-GGGS-K(Bio) (ACTRPWDPQCGGGSK(Biotin); disulfide 2-10 (inferred)) [aCD3-04-012]”, the “Yes/no binding, BLI” value [1] was “No”.
For `C[C@@H](O)[C@@H]1NC(=O)[C@@H](NC(=O)[C@@H](N)Cc2c[nH]c3ccccc23)CSSC[C@@H](C(=O)NCC(=O)NCC(=O)NCC(=O)N[C@@H](CO)C(=O)N[C@@H](CCCCNC(=O)CCCC[C@@H]2SC[C@@H]3NC(=O)N[C@@H]32)C(=O)O)NC(=O)[C@H](CCC(N)=O)NC(=O)[C@@H]2CCCN2C(=O)[C@H](CC(=O)O)NC(=O)CNC(=O)[C@@H]2CCCN2C(=O)[C@H](CCCNC(=N)N)NC1=O` [aCD3-04-006, WCTRPGDPQC-GGGS-K(Bio)] (H-WCTRPGDPQCGGGSK(Biotin)-OH; disulfide 2-10), the “Yes/no binding, BLI” value [1] was “Yes” and the pKd [2] was 6.65.
In the case of “ACTR(NMI)GDPQC-GGGS-K(Bio) (ACTRLGDPQCGGGSK; not fully specified; N-methylisoleucine; GGGS linker; biotinylated lysine; MOD_RES (5)..(5) N-methylisoleucine; MOD_RES (15)..(15) K(Bio)) [aCD3-04-010]”, the “Yes/no binding, BLI” value [1] was “No”.
